{"source": "patent US7709514B2", "about": "“Therapeutic molecules and methods-1” (Cortical Pty Ltd, priority 2002, dated 2010)", "key": {"[1]": {"test_system": "murine peritoneal macrophage nitric oxide production", "test": "inhibition of peritoneal macrophage nitric oxide release (Greiss assay)", "type": "cell-based, mice", "settings": "Mus musculus, LPS 10 ng/ml and interferon-γ 10 units/ml, 24 hours, read-out: % Nitrite concentration inhibition from control", "method": "C57BL6/J male mice were injected intraperitoneally with 2 ml of thioglycollate. Five (5) days later peritoneal macrophages were collected by lavaging the peritoneum of anaesthetized mice with 3 ml of cold Hanks buffered saline solution. Cells from several mice were pooled, washed and re-suspended in DMEM supplemented with 5% FCS. Cells were plated in 96 well plastic tissue culture plates at 1×10^5 cells/well. Cells were treated with compound or vehicle for 1 hour in a 5% CO2 incubator at 37° C. Cells were then treated with LPS (10 ng/ml) and recombinant human interferon-γ (10 units/ml) and incubated for 24 hours. After 24 hours, 50 μl of supernatant from each well was carefully removed and transferred to ELISA plates. The concentration of nitrite in culture supernatants was measured by the Greiss assay (27). The results were defined as the percentage inhibition of nitrite concentration in compound-treated cell culture supernatants compared to that of vehicle-treated cells."}, "[2]": {"test_system": "murine peritoneal macrophage cytokine production", "test": "inhibition of peritoneal macrophage cytokine production (ELISA)", "type": "cell-based, mice", "settings": "Mus musculus", "method": "C57BL6/J male mice were injected intraperitoneally with 2 ml of thioglycollate. Five (5) days later peritoneal macrophages were collected by lavaging the peritoneum of anaesthetized mice with 3 ml of cold Hanks buffered saline solution. Cells from several mice were pooled, washed and re-suspended in DMEM supplemented with 5% FCS. Cells were plated in 96 well plastic tissue culture plates at 1×10^5 cells/well. Cells were treated with compound or vehicle for 1 hour in a 5% CO2 incubator at 37° C. Cells were then treated with LPS (10-100 ng/ml) or recombinant human interferon-γ (10 units/ml) and incubated for 24 hours. After 24 hours, 50 μl of supernatant from each well was carefully removed and transferred to ELISA plates. The concentration of interleukin 1 (IL-1) or interleukin 6 (IL-6) was measured by ELISA. The concentration of compound at which LPS- or interferon-γ-induced cytokine release was suppressed by 50% compared to vehicle-only-treated cells (EC50) was calculated using Prism® software. Table 9 lists the EC50 for two compounds tested in this assay."}, "[3]": {"test_system": "IL-1-induced COX-2 expression", "test": "IL-1-induced COX-2 expression in S112 human dermal fibroblasts (MIF-dependent bioassay)", "type": "cell-based", "method": "The activity of compounds was studied in a bioassay utilising MIF-dependent activation of human dermal fibroblasts. […] IL-1-induced COX-2 expression is therefore a MIF-dependent event. […] Prior to experimentation, cells were seeded at 10^5 cells/ml in RPMI/0.1% BSA for 18 hours. […] After 6 hours, cells were collected and intracellular COX-2 protein determined by permeabilisation flow cytometry. […] Cellular fluorescence was determined using a flow cytometer. At least 5000 events were counted for each reading, each of which was performed in duplicate, and the results expressed in mean fluorescence intensity (MFI) after subtraction of negative control-labelled cell fluorescence. The effect of each compound was determined by subtracting the IL-1+compound-treated cell MFI from the IL-1-treated cell (control) MFI and expressed as % inhibition. In each case the % inhibition of IL-1-induced COX-2 expression is expressed as the mean, or mean±SEM where results are available from multiple experiments."}, "[4]": {"test_system": "murine endotoxic shock model", "test": "murine endotoxic shock model (LPS), cytokines by ELISA", "type": "in vivo, mice", "method": "The activity of compound 5 was studied in the murine endotoxic shock model. This model has been previously shown to be dependent on MIF (21). Administration of a substance which inhibits the cytokine or biological activity of MIF would be expected to result in a reduction in serum levels of cytokines such as IL-1 or IL-6. Endotoxaemia was induced by intra-peritoneal injection of lipopolysaccharide (LPS) (15 mg/kg) in 400 μl saline. Mice were treated with a saline solution (control) only, a saline solution and LPS, or LPS and compound 5 at a dose of 15 mg/kg body weight, administered by intra-peritoneal injection at 24 hours, 12 hours and 1 hour before intra-peritoneal LPS injection. After 1.5 hours mice were humanely killed by CO2 inhalation then neck dislocation. Serum was obtained from blood obtained by cardiac puncture prior to death and measured for cytokines including interleukin 1 (IL-1) and interleukin 6 (IL-6) by ELISA. The production of IL-1 and IL-6 has been previously shown to be dependent on MIF (22). Macrophages were obtained by lavage of the peritoneal cavity using normal saline and placed into 24 well tissue culture plates for 18 hours in RPMI/10% FCS. The cultured peritoneal macrophage supernatants were then analysed for cytokines including IL-6. The peritoneal lavage supernatants were also analysed for cytokines including IL-6.\nThe effect of compound 5 was tested under a variety of conditions in animals exposed to endotoxic shock induced as above by the injection of 15 mg/kg LPS by intraperitoneal injection. In each case compounds were administered by intraperitoneal injection at a dose of 15 mg/kg. Compound 5 administration was associated with reductions in serum IL-1, IL-6, and TNF concentration whether administered by intraperitoneal injection (IP) or by oral gavage, and under a variety of administration regimens."}}, "note": "Where two headings read alike, the source gives them in different places."}
{"smiles": "CCCCCOC(=O)c1ccc2[nH]c(=O)[nH]c2c1", "note": "[Compound 5]", "values": [{"measurement": "inhibition at 25 µM", "setting": "[1]; compound 25 μM", "result": 11.1, "unit": "%"}, {"measurement": "inhibition at 50 µM", "setting": "[1]; compound 50 μM", "result": 19.7, "unit": "%"}, {"measurement": "inhibition at 100 µM", "setting": "[1]; compound 100 μM", "result": 28.6, "unit": "%"}, {"measurement": "EC50", "setting": "[2]; [LPS] 10 ng/mL, read-out: EC50, IL-1 release", "result": 0.075, "unit": "µM"}, {"measurement": "EC50", "setting": "[2]; [LPS] 100 ng/mL, read-out: EC50, IL-6 release", "result": 17.7, "unit": "µM"}, {"measurement": "inhibition at 1 µM", "setting": "[3]; Homo sapiens, Fibroblast, compound 1 μM, S112 cells, IL-1 0.1 ng/ml, 6 hours", "result": 7.7, "unit": "%"}, {"measurement": "inhibition at 10 µM", "setting": "[3]; Homo sapiens, Fibroblast, compound 10 μM, S112 cells, IL-1 0.1 ng/ml, 6 hours", "result": 21.4, "unit": "%"}, {"measurement": "inhibition at 25 µM", "setting": "[3]; Homo sapiens, Fibroblast, compound 25 μM, S112 cells, IL-1 0.1 ng/ml, 6 hours", "result": 34, "unit": "%"}, {"measurement": "inhibition at 50 µM", "setting": "[3]; Homo sapiens, Fibroblast, compound 50 μM, S112 cells, IL-1 0.1 ng/ml, 6 hours, read-out: % inhibition of IL-1-induced COX-2 expression", "result": 48.4, "unit": "%"}, {"measurement": "inhibition at 100 µM", "setting": "[3]; Homo sapiens, Fibroblast, compound 100 μM, S112 cells, IL-1 0.1 ng/ml, 6 hours", "result": 52.2, "unit": "%"}, {"measurement": "% Inhibition of IL-1 induced COX-2 expression", "setting": "[3]; Table 2 experiment, Compound 5 50 μM alone", "result": 45.1, "unit": "%"}, {"measurement": "serum IL-1 concentration", "setting": "[4]; FIG. 5, LPS alone vs LPS with compound 5", "result": "marked reduction"}, {"measurement": "Serum IL-1 at 1.5 h, LPS + cpd", "setting": "[4]; IP injection 15 mg/kg at −24, −6, −1 h, LPS alone 42.49", "result": 39.82}, {"measurement": "Serum IL-1 at 6 h, LPS + cpd", "setting": "[4]; IP injection 15 mg/kg at −24, −6, −1 h, LPS alone 786.6", "result": 170.2}, {"measurement": "Serum IL-1 at 1.5 h, LPS + cpd", "setting": "[4]; IP injection 15 mg/kg at −24, −12, −1 h, LPS alone 484.8", "result": 283.8}, {"measurement": "Serum IL-6 at 1.5 h, LPS + cpd", "setting": "[4]; IP injection 15 mg/kg at −24, −12, −1 h, LPS alone 92790", "result": 75260}, {"measurement": "Serum IL-6 at 6 h, LPS + cpd", "setting": "[4]; IP injection 15 mg/kg at −1 h, LPS alone 215100", "result": 150300}, {"measurement": "Serum IL-1 at 1.5 h, LPS + cpd", "setting": "[4]; IP injection 15 mg/kg at −18 h, LPS alone 301.5", "result": 105.9}, {"measurement": "Serum TNF at 1.5 h, LPS + cpd", "setting": "[4]; IP injection 15 mg/kg at −18 h, LPS alone 4263", "result": 2422}, {"measurement": "Serum IL-6", "setting": "[4]; LPS 15 mg/kg IP, compound 15 mg/kg IP at 24, 12 and 1 hour before LPS, 1.5 hours after LPS, LPS only 261.05", "result": 99.78, "unit": "ng/mL"}, {"measurement": "Peritoneal lavage IL-6", "setting": "[4]; LPS 15 mg/kg IP, compound 15 mg/kg IP at 24, 12 and 1 hour before LPS, LPS only 16.11", "result": 7.07, "unit": "ng/mL"}, {"measurement": "Cultured peritoneal macrophage IL-6", "setting": "[4]; LPS 15 mg/kg IP, compound 15 mg/kg IP at 24, 12 and 1 hour before LPS, macrophages cultured 18 hours, LPS only 3.40", "result": 1.33, "unit": "ng/mL"}, {"measurement": "serum IL-1, IL-6, and TNF concentration", "setting": "[4]; LPS 15 mg/kg, IP or oral gavage, variety of administration regimens", "result": "reductions"}, {"measurement": "Serum IL-1 at 1.5 h, LPS + cpd", "setting": "[4]; Oral gavage 5 mg/kg at −24 h, −1 h, LPS alone 237.0", "result": 182.5}, {"measurement": "Serum IL-1 at 1.5 h, LPS + cpd", "setting": "[4]; Oral gavage 15 mg/kg at −24, −6, −1 h, LPS alone 103.7", "result": 47.1}, {"measurement": "Serum IL-1 at 1.5 h, LPS + cpd", "setting": "[4]; Oral gavage 15 mg/kg at −24 h, LPS alone 292.0", "result": 152.6}, {"measurement": "Serum IL-6 at 1.5 h, LPS + cpd", "setting": "[4]; Oral gavage 15 mg/kg at −24 h, LPS alone 121100", "result": 80250}]}
